Assay results as given in US20070259866A1, “Method of Adenovirus, HIV and HPV Prophylaxis” (priority 1999, published 2007).
“Also recorded” adds a separate entry of the source.

Legend:
adenovirus = assay: Inhibition of adenovirus infection in A549 cells in vitro; assay type: cell-based
Source text: Compound 96 inhibited adenovirus infection 67% in A549 cells in vitro.

[1] = test system: human papillomavirus type 11 (HPV-11); assay: HPV-11 pre-treated with CTC 96, subcutaneous human foreskin xenograft infection model in SCID mouse, graft size; assay type: in vivo; conditions: for cGMD of the Grafts, Lower Quartile / cGMD of the Grafts, Median / cGMD of the Grafts, Upper Quartile: 12 weeks; for Composite Geometric Mean Diameters (cGMD) of the Grafts, Means: grafts at 12 weeks, replicates 1, 3, 4
Description: The activity of CTC 96 on human papillomavirus type 11 (HPV-11) prior to infection was tested by using a subcutaneous human xenograft infection model in the severe combined immunodeficiency (SCID) mouse.
Three different concentrations, 1%, 0.2% and 0.05%, of CTC 96 and a control (normal saline) were evaluated in HPV-11-infected internal human xenograft in the SCID mouse. The viral suspension was exposed for one hour with one of the four CTC 96 concentrations before being used to infect the human foreskin grafts.
(§1) Each experiment was done in quadruplicate. Twelve mice were used in each replicate. For each replicate, the four treatment groups were made of 3 mice (3 animals per cage). Each mouse received under the skin of each flank one HPV-11-infected foreskin fragment. Two foreskin donors were used, one for the fragments implanted under the left flank and a different one for the fragments implanted under the right flank. The HPV-11-infected grafts were left to grow for 12 weeks, while the mice weights were monitored every other week. At the end of the 12 weeks, the animals were sacrificed and the grafts recovered, measured and processed.
CTC 96 was applied to the virus directly, prior to infection. Just prior to exposure of the virus to CTC 96, 750 μl of normal saline was added to a vial containing 15 mg of dry CTC 96. The resulting solution contained 2% of CTC 96.
CTC 96 was incubated for 1 hour at 37° C. with the viral suspension, which was then used to infect the human foreskin fragments.
Neonatal foreskins from routine circumcision were collected at the nursery of a local hospital and placed in transport medium (Minimum Essential Medium, penicillin 25,000 U/ml, streptomycin 25 mg/mL), In a Petri dish, the foreskin's occluded side was removed using a scalpel, leaving the exposed skin prepared as a split-thickness graft. The foreskin was punched out using a 3 mm biopsy punch. One fragment was fixed in buffered formalin to serve as control in the histologic and immunocytochemical analyses. 3-4 fragments were snap frozen in liquid nitrogen, to serve as controls in the RT-PCR assay. The other fragments were split equally into four groups. Each group of fragments was dispensed in one of the vials containing 500 μl of pretreated viral suspension.
Two foreskin donors collected within 24 hours of the procedure, were used in each replicate experiment. Each viral suspension received the foreskin fragments of both foreskin donors. To recognize the foreskin donors, in each experiment we used […]. The fragments were vortexed in the suspension and left to incubate for 60 minutes at 37° C. before being grafted.
For the grafting, the mouse was anesthetized in an anesthesia chamber with 5% halothane to 2 liters of oxygen, until no corneal or pedal reflexes could be elicited. The animal was removed from the chamber, and the halothane adjusted to 2-2.5% to 1 liter of oxygen for continued administration via nose cone for the duration of the surgical procedure. The animals ears were notched for identification. The back skin was prepped with a povidone iodine swab. A 1 cm vertical incision of the skin was made on the flank with scissors. Through that incision, the subcutis was bluntly dissected with closed scissors caudad to the wound. One foreskin fragment from the […] donor was inserted in the caudad pocket, epidermis facing the mouse's skin, mucosal side in contact with the musculo-fascial plane (panniculus camosus) of the mouse. The incision was closed with two metal clips. The other side was grafted in the same manner with one foreskin fragment from the […] donor.
The animals were otherwise sacrificed by cervical dislocation 12 weeks after graft implantation. Length, width, and height of the graft were measured and recorded. The graft were then removed and split in at least two parts. One part was fixed in buffered formalin. […]

[2] = Mouse mortality, survival and weight change in the HPV-11 xenograft SCID mouse experiment; assay type: in vivo, scid/scid mice; conditions: for Mouse Status at the end of the Experiment: Alive / Mouse Status at the end of the Experiment: Dead: of 12 mice
Source text: as §1
Six to 7 week old male scid/scid mice were used
The animals were monitored weekly. They were weighed at the time of grafting, and every other week during the 12 weeks of the experiment.
Animals were to be prematurely euthanitized if during monitoring any of the following criteria were met: • greater than 10% weight loss; • bleeding or bruising; • inability to maintain righting reflex; • inability to move about; • inability to eat or drink; • tumor greater than 30% of the animal's body weight.
The animals were otherwise sacrificed by cervical dislocation 12 weeks after graft implantation. Length, width, and height of the graft were measured and recorded. The graft were then removed and split in at least two parts. One part was fixed in buffered formalin. The other part was either left as is, or subdivided for subsequent analyses in as many fragments as size permitted. These fragments were placed in a sterile labelled vial and frozen in liquid nitrogen before being transferred to a −80° C. freezer.
Those animals dying unexpectedly before the date of the scheduled euthanasia had their grafts measured and fixed in formalin, if body decomposition was not too advanced.

varicella-zoster virus = assay: Inhibition of varicella-zoster virus infection in vitro; assay type: cell-based
Source text: Compound 96 inhibited varicella-zoster virus infection >98% in vitro.

SMILES: CC1=CC(C)=[N+]2CC[N+]3=C(C)C=C(C)[O][Co-4]23([n+]2cc[nH]c2C)([n+]2cc[nH]c2C)[O]1.[Br-] [Compound 96]
- inhibited adenovirus infection (adenovirus): 67%
- effect on graft size ([1]; 0.05% concentration): effective
- cGMD of the Grafts, Lower Quartile ([1]; CTC 96 0.05%): 1.94 mm
- cGMD of the Grafts, Median ([1]; CTC 96 0.05%): 2.01 mm
- cGMD of the Grafts, Upper Quartile ([1]; CTC 96 0.05%): 2.13 mm
- cGMD of the Grafts, Lower Quartile ([1]; CTC 96 0.2%): 1.70 mm
- cGMD of the Grafts, Median ([1]; CTC 96 0.2%): 1.88 mm
- cGMD of the Grafts, Upper Quartile ([1]; CTC 96 0.2%): 2.05 mm
- cGMD of the Grafts, Lower Quartile ([1]; CTC 96 1%): 1.82 mm
- cGMD of the Grafts, Median ([1]; CTC 96 1%): 1.94 mm
- cGMD of the Grafts, Upper Quartile ([1]; CTC 96 1%): 2.08 mm
- HPV-11-induced growth of the grafts ([1]; regardless of the concentration used): limited the HPV-11-inducted growth of the grafts
- Composite Geometric Mean Diameters (cGMD) of the Grafts, Means ([1]; virus exposed 1 hour to CTC 96 0.05%): 2.02 mm
- Composite Geometric Mean Diameters (cGMD) of the Grafts, Means ([1]; virus exposed 1 hour to CTC 96 0.2%): 1.86 mm
- Composite Geometric Mean Diameters (cGMD) of the Grafts, Means ([1]; virus exposed 1 hour to CTC 96 1%): 1.95 mm
- Mouse Survival, Lower Quartile ([2]; CTC 96 0.05%): 84.00 days
- Mouse Survival, Means ([2]; CTC 96 0.05%): 83.167 days
- Mouse Survival, Median ([2]; CTC 96 0.05%): 84.00 days
- Mouse Survival, Upper Quartile ([2]; CTC 96 0.05%): 84.00 days
- Mouse Weight Changes during the Experiment, Lower Quartile ([2]; CTC 96 0.05%): 12.32%
- Mouse Weight Changes during the Experiment, Means ([2]; CTC 96 0.05%): 13.12%
- Mouse Weight Changes during the Experiment, Median ([2]; CTC 96 0.05%): 14.16%
- Mouse Weight Changes during the Experiment, Upper Quartile ([2]; CTC 96 0.05%): 15.62%
- Mouse Status at the end of the Experiment: Alive ([2]; CTC 96 0.05%): 11
- Mouse Status at the end of the Experiment: Dead ([2]; CTC 96 0.05%): 1
- Mouse Survival, Lower Quartile ([2]; CTC 96 0.2%): 57.50 days
- Mouse Survival, Means ([2]; CTC 96 0.2%): 69.83 days
- Mouse Survival, Median ([2]; CTC 96 0.2%): 84.00 days
- Mouse Survival, Upper Quartile ([2]; CTC 96 0.2%): 84.00 days
- Mouse Weight Changes during the Experiment, Lower Quartile ([2]; CTC 96 0.2%): 11.48%
- Mouse Weight Changes during the Experiment, Means ([2]; CTC 96 0.2%): 15.77%
- Mouse Weight Changes during the Experiment, Median ([2]; CTC 96 0.2%): 11.77%
- Mouse Weight Changes during the Experiment, Upper Quartile ([2]; CTC 96 0.2%): 24.80%
- Mouse Status at the end of the Experiment: Alive ([2]; CTC 96 0.2%): 8
- Mouse Status at the end of the Experiment: Dead ([2]; CTC 96 0.2%): 4
- Mouse Survival, Lower Quartile ([2]; CTC 96 1%): 84.00 days
- Mouse Survival, Means ([2]; CTC 96 1%): 84.00 days
- Mouse Survival, Median ([2]; CTC 96 1%): 84.00 days
- Mouse Survival, Upper Quartile ([2]; CTC 96 1%): 84.00 days
- Mouse Weight Changes during the Experiment, Lower Quartile ([2]; CTC 96 1%): 5.926%
- Mouse Weight Changes during the Experiment, Means ([2]; CTC 96 1%): 9.96%
- Mouse Weight Changes during the Experiment, Median ([2]; CTC 96 1%): 9.00%
- Mouse Weight Changes during the Experiment, Upper Quartile ([2]; CTC 96 1%): 12.40%
- Mouse Status at the end of the Experiment: Alive ([2]; CTC 96 1%): 12
- Mouse Status at the end of the Experiment: Dead ([2]; CTC 96 1%): 0
- effect on mouse weight gain ([2]; all treatment groups, drug used only to inactivate HPV-11 in vitro): no effect
- effect on mouse mortality (number of deaths, length of survival) ([2]; all treatment groups, drug used only to inactivate HPV-11 in vitro, listed as CTC 96): no differences among the treatment groups; also recorded: no effect
- inhibited varicella-zoster virus infection (varicella-zoster virus): > 98%
